# Like-named read-outs stand apart in the source and are kept apart here.
# Legend:
# Test in all cases: Test F pre-/postemergence plant response
# Type in all cases: in vivo
# [1] = system: Brazilian crabgrass (Digitaria horizontalis); settings: Digitaria horizontalis, scale 0 to 100, read-out: Plant response rating, Crabgrass, Brazil
# Outline: (§1)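 Seeds were sown in silt loam soil and sprayed preemergence; separately, plants at the 1- to 4-leaf stage (2 to 18 cm) received postemergence sprays. Test chemicals were in a non-phytotoxic solvent mixture with surfactant. After 14 to 21 days in a greenhouse, injury was visually rated 0 (no effect) to 100 (complete control) against untreated controls.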
# [2] = system: Italian ryegrass (Lolium multiflorum); settings: Lolium multiflorum, scale 0 to 100, read-out: Plant response rating, Ryegrass, Italian; for pest or weed control at 16 g/ha: 16 g ai/ha; for pest or weed control at 31 g/ha: 31 g ai/ha; for pest or weed control at 125 g/ha: 125 g ai/ha
# Outline: as §1
# [3] = system: barnyardgrass (Echinochloa crus-galli); settings: Echinochloa crus-galli, scale 0 to 100, read-out: Plant response rating, Barnyardgrass
# Outline: as §1
# [4] = system: dayflower (Virginia (VA) dayflower, Commelina virginica); settings: Commelina virginica, scale 0 to 100, read-out: Plant response rating, Dayflower, VA
# Outline: as §1
# [5] = system: green foxtail (Setaria viridis); settings: Setaria viridis, pre-emergence, scale 0 to 100, read-out: Plant response rating, Foxtail, Green
# Outline: as §1
# [6] = system: hairy beggarticks (Bidens pilosa); settings: Bidens pilosa, scale 0 to 100, read-out: Plant response rating, Beggarticks
# Outline: as §1
# [7] = system: johnsongrass (Sorghum halepense); settings: Sorghum halepense, pre-emergence, scale 0 to 100, read-out: Plant response rating, Johnsongrass
# Outline: as §1
# [8] = system: lambsquarters (Chenopodium album); settings: Chenopodium album, pre-emergence, scale 0 to 100, read-out: Plant response rating, Lambsquarters
# Outline: as §1
# [9] = system: large (Lg) crabgrass (Digitaria sanguinalis); settings: Digitaria sanguinalis, pre-emergence, scale 0 to 100, read-out: Plant response rating, Crabgrass, Large
# Outline: as §1
# [10] = system: morningglory (Ipomoea coccinea); settings: Ipomoea, pre-emergence, scale 0 to 100, read-out: Plant response rating, Morningglory
# Outline: as §1
# [11] = system: nightshade (eastern black nightshade, Solanum ptycanthum); settings: Solanum, pre-emergence, scale 0 to 100, read-out: Plant response rating, Nightshade
# Outline: as §1
# [12] = system: ragweed (common ragweed, Ambrosia elatior); settings: Ambrosia artemisiifolia, pre-emergence, scale 0 to 100, read-out: Plant response rating, Ragweed
# Outline: as §1
# [13] = system: sandbur (southern sandbur, Cenchrus echinatus); settings: Cenchrus echinatus, scale 0 to 100, read-out: Plant response rating, Sandbur
# Outline: as §1
# [14] = system: waterhemp (common waterhemp, Amaranthus rudis); settings: Amaranthus tuberculatus, scale 0 to 100, read-out: Plant response rating, Waterhemp
# Outline: as §1
# [15] = system: wild poinsettia (Euphorbia heterophylla); settings: Euphorbia heterophylla, scale 0 to 100, read-out: Plant response rating, Poinsettia, Wild
# Outline: as §1
# [16] = system: yellow nutsedge (Cyperus esculentus); settings: Cyperus, pre-emergence, scale 0 to 100, read-out: Plant response rating, Nutsedge, Yellow
# Outline: as §1
# [17] = post-emergence, 8 g ai/ha Postemergence
# [18] = post-emergence, 16 g ai/ha Postemergence
# [19] = post-emergence, 31 g ai/ha Postemergence
# [20] = post-emergence, 62 g ai/ha Postemergence
# [21] = post-emergence, 125 g ai/ha Postemergence
# [22] = pre-emergence, 8 g ai/ha Preemergence
# [23] = pre-emergence, 16 g ai/ha Preemergence
# [24] = pre-emergence, 31 g ai/ha Preemergence
# [25] = pre-emergence, 62 g ai/ha Preemergence
# [26] = pre-emergence, 125 g ai/ha Preemergence
compound,measurement,setting,value
"FC(F)(F)c1cc(-c2ccccc2Oc2ncc(Cl)cn2)no1 [Compound 200, 5-chloro-2-[2-[5-(trifluoromethyl)-3-isoxazolyl]phenoxy]pyrimidine]",pest or weed control at 8 g/ha,[1]; [17],10%
same,pest or weed control at 16 g/ha,[1]; [18],10%
same,pest or weed control at 31 g/ha,[1]; [19],15%
same,pest or weed control at 62 g/ha,[1]; [20],20%
same,pest or weed control at 125 g/ha,[1]; [21],20%
same,pest or weed control at 8 g/ha,[1]; [22],0%
same,pest or weed control at 16 g/ha,[1]; [23],90%
same,pest or weed control at 31 g/ha,[1]; [24],98%
same,pest or weed control at 62 g/ha,[1]; [25],100%
same,pest or weed control at 125 g/ha,[1]; [26],100%
same,pest or weed control at 8 g/ha,[2]; [17],0%
same,pest or weed control at 16 g/ha,"[2]; post-emergence, Postemergence",0%
same,pest or weed control at 31 g/ha,"[2]; post-emergence, Postemergence",0%
same,pest or weed control at 62 g/ha,"[2]; post-emergence, 62 g ai/ha, Postemergence",15%
same,pest or weed control at 125 g/ha,"[2]; post-emergence, Postemergence",20%
same,pest or weed control at 8 g/ha,[2]; [22],0%
same,pest or weed control at 16 g/ha,"[2]; pre-emergence, Preemergence",0%
same,pest or weed control at 31 g/ha,"[2]; pre-emergence, Preemergence",0%
same,pest or weed control at 125 g/ha,"[2]; pre-emergence, Preemergence",40%
same,pest or weed control at 62 g/ha,"[2]; pre-emergence, Preemergence",20%
same,pest or weed control at 8 g/ha,[3]; [17],0%
same,pest or weed control at 16 g/ha,[3]; [18],0%
same,pest or weed control at 31 g/ha,[3]; [19],0%
same,pest or weed control at 62 g/ha,[3]; [20],15%
same,pest or weed control at 125 g/ha,[3]; [21],25%
same,pest or weed control at 8 g/ha,[3]; [22],0%
same,pest or weed control at 16 g/ha,[3]; [23],0%
same,pest or weed control at 31 g/ha,[3]; [24],0%
same,pest or weed control at 62 g/ha,[3]; [25],30%
same,pest or weed control at 125 g/ha,[3]; [26],60%
same,pest or weed control at 8 g/ha,[4]; [17],0%
same,pest or weed control at 16 g/ha,[4]; [18],0%
same,pest or weed control at 31 g/ha,[4]; [19],25%
same,pest or weed control at 62 g/ha,[4]; [20],15%
same,pest or weed control at 125 g/ha,[4]; [21],35%
same,pest or weed control at 8 g/ha,[4]; [22],0%
same,pest or weed control at 16 g/ha,[4]; [23],15%
same,pest or weed control at 31 g/ha,[4]; [24],50%
same,pest or weed control at 62 g/ha,[4]; [25],70%
same,pest or weed control at 125 g/ha,[4]; [26],90%
same,pest or weed control at 8 g/ha,[5]; 8 g ai/ha Preemergence,0%
same,pest or weed control at 16 g/ha,"[5]; 16 g ai/ha, Preemergence",10%
same,pest or weed control at 31 g/ha,"[5]; 31 g ai/ha, Preemergence",98%
same,pest or weed control at 125 g/ha,"[5]; 125 g ai/ha, Preemergence",100%
same,pest or weed control at 62 g/ha,[5]; Preemergence,100%
same,pest or weed control at 8 g/ha,[6]; [17],0%
same,pest or weed control at 16 g/ha,[6]; [18],0%
same,pest or weed control at 31 g/ha,[6]; [19],5%
same,pest or weed control at 62 g/ha,[6]; [20],10%
same,pest or weed control at 125 g/ha,[6]; [21],10%
same,pest or weed control at 8 g/ha,[6]; [22],0%
same,pest or weed control at 16 g/ha,[6]; [23],0%
same,pest or weed control at 31 g/ha,[6]; [24],0%
same,pest or weed control at 62 g/ha,[6]; [25],0%
same,pest or weed control at 125 g/ha,[6]; [26],0%
same,pest or weed control at 8 g/ha,[7]; 8 g ai/ha Preemergence,0%
same,pest or weed control at 16 g/ha,[7]; 16 g ai/ha Preemergence,0%
same,pest or weed control at 31 g/ha,[7]; 31 g ai/ha Preemergence,5%
same,pest or weed control at 125 g/ha,[7]; 125 g ai/ha Preemergence,90%
same,pest or weed control at 62 g/ha,[7]; Preemergence,35%
same,pest or weed control at 8 g/ha,[8]; 8 g ai/ha Preemergence,0%
same,pest or weed control at 16 g/ha,"[8]; 16 g ai/ha, Preemergence",0%
same,pest or weed control at 31 g/ha,"[8]; 31 g ai/ha, Preemergence",98%
same,pest or weed control at 125 g/ha,"[8]; 125 g ai/ha, Preemergence",100%
same,pest or weed control at 62 g/ha,[8]; Preemergence,98%
same,pest or weed control at 8 g/ha,[9]; 8 g ai/ha Preemergence,0%
same,pest or weed control at 16 g/ha,[9]; 16 g ai/ha Preemergence,50%
same,pest or weed control at 31 g/ha,[9]; 31 g ai/ha Preemergence,85%
same,pest or weed control at 62 g/ha,[9]; 62 g ai/ha Preemergence,95%
same,pest or weed control at 125 g/ha,[9]; 125 g ai/ha Preemergence,100%
same,pest or weed control at 8 g/ha,[10]; 8 g ai/ha Preemergence,0%
same,pest or weed control at 16 g/ha,[10]; 16 g ai/ha Preemergence,0%
same,pest or weed control at 31 g/ha,[10]; 31 g ai/ha Preemergence,0%
same,pest or weed control at 125 g/ha,[10]; 125 g ai/ha Preemergence,15%
same,pest or weed control at 62 g/ha,[10]; Preemergence,0%
same,pest or weed control at 8 g/ha,[11]; 8 g ai/ha Preemergence,0%
same,pest or weed control at 16 g/ha,[11]; 16 g ai/ha Preemergence,35%
same,pest or weed control at 31 g/ha,[11]; 31 g ai/ha Preemergence,60%
same,pest or weed control at 125 g/ha,[11]; 125 g ai/ha Preemergence,98%
same,pest or weed control at 62 g/ha,[11]; Preemergence,98%
same,pest or weed control at 8 g/ha,[12]; 8 g ai/ha Preemergence,0%
same,pest or weed control at 16 g/ha,[12]; 16 g ai/ha Preemergence,0%
same,pest or weed control at 31 g/ha,[12]; 31 g ai/ha Preemergence,10%
same,pest or weed control at 125 g/ha,[12]; 125 g ai/ha Preemergence,40%
same,pest or weed control at 62 g/ha,[12]; Preemergence,35%
same,pest or weed control at 8 g/ha,[13]; [17],0%
same,pest or weed control at 16 g/ha,[13]; [18],0%
same,pest or weed control at 31 g/ha,[13]; [19],0%
same,pest or weed control at 62 g/ha,[13]; [20],0%
same,pest or weed control at 125 g/ha,[13]; [21],5%
same,pest or weed control at 8 g/ha,[13]; [22],0%
same,pest or weed control at 16 g/ha,[13]; [23],5%
same,pest or weed control at 31 g/ha,[13]; [24],5%
same,pest or weed control at 125 g/ha,[13]; [26],75%
same,pest or weed control at 62 g/ha,"[13]; pre-emergence, Preemergence",40%
same,pest or weed control at 8 g/ha,[14]; [17],75%
same,pest or weed control at 16 g/ha,[14]; [18],80%
same,pest or weed control at 31 g/ha,[14]; [19],95%
same,pest or weed control at 62 g/ha,[14]; [20],98%
same,pest or weed control at 125 g/ha,[14]; [21],100%
same,pest or weed control at 8 g/ha,[14]; [22],70%
same,pest or weed control at 16 g/ha,[14]; [23],98%
same,pest or weed control at 31 g/ha,[14]; [24],100%
same,pest or weed control at 125 g/ha,[14]; [26],100%
same,pest or weed control at 62 g/ha,"[14]; pre-emergence, Preemergence",100%
same,pest or weed control at 8 g/ha,[15]; [17],35%
same,pest or weed control at 16 g/ha,[15]; [18],50%
same,pest or weed control at 31 g/ha,[15]; [19],40%
same,pest or weed control at 62 g/ha,[15]; [20],60%
same,pest or weed control at 125 g/ha,[15]; [21],80%
same,pest or weed control at 8 g/ha,[15]; [22],0%
same,pest or weed control at 16 g/ha,[15]; [23],0%
same,pest or weed control at 31 g/ha,[15]; [24],20%
same,pest or weed control at 125 g/ha,[15]; [26],70%
same,pest or weed control at 62 g/ha,"[15]; pre-emergence, Preemergence",60%
same,pest or weed control at 8 g/ha,[16]; 8 g ai/ha Preemergence,0%
same,pest or weed control at 16 g/ha,[16]; 16 g ai/ha Preemergence,0%
same,pest or weed control at 31 g/ha,[16]; 31 g ai/ha Preemergence,0%
same,pest or weed control at 125 g/ha,[16]; 125 g ai/ha Preemergence,35%
same,pest or weed control at 62 g/ha,[16]; Preemergence,10%
